The record followed here is US20190083455A1, “METHODS AND COMPOSITIONS FOR THE MODULATION OF BETA-ENDORPHIN LEVELS” (The General Hospital Corporation, priority 2014, published 2019).

Where a name gives a salt, the structure may show the parent alone.

Holding throughout (format): in vivo
The test system of experiment [1] is C57Bl/6 mice. Kind of experiment: Straub Tail measurement. Particulars: 10 mg/kg ip, scored 15 minutes after injection; day 23 of the UV exposure regimen. On the procedure: Straub Tail measurement was performed as described (Bilbey et al., 1960). Scoring was on a scale of 0-2 according to the angle of elevation of the tail from the horizontal plane (0=tail relaxed and no elevation; 1=tail is rigid and elevated 1-10° from horizontal; 1.5=11-45° elevation and rigidity at the base of the tail; 2=46-90° elevation and rigidity at the base of the tail). At each time point, each mouse was scored every 10 seconds for 1 minute and the final score was the average of these six values. Mice undergoing the six-week UV exposure regimen or mock treatment were scored prior to the start of the regimen, once per week during the regimen, and once per week for 2 weeks following cessation of UV/mock treatment. On day 23 of the regimen, after weekly Straub Tail scoring, mice were injected (intraperitoneal (ip)) with either 10 mg/kg naloxone hydrochloride (Sigma, St. Louis, Mo.) or saline. Mice underwent Straub Tail scoring again 15 minutes following injection.
Exogenous opioids produce a dose-dependent, μ-opioid receptor-mediated contraction of the sacrococcygeus dorsalis muscle at the tail base in rodents, resulting in rigidity and elevation of the tail, a phenomenon called “Straub Tail” (Bilbey et al., 1960). […]

For experiment [2], the system named is C57Bl/6 mice. Kind of experiment: Conditioned place aversion testing. As for the experimental part:
The apparatus used consisted of a box with black interior and dim lighting and a box with white interior and bright lighting connected by a smaller gray “neutral” box, and procedures were followed as described (Skoubis et al., 2001; Weitemier and Murphy, 2009). Mice that had undergone 6 weeks of daily UV exposure or mock exposure were tested for baseline place preferences prior to conditioning (10-minute testing time per mouse). Over the following 4 days, conditioning took place in which mice were either conditioned with naloxone (10 mg/kg ip injection) or saline (ip injection) in the black box, and all animals were conditioned with saline (ip injection) in the white box. Conditioning time in each box was 30 minutes following injection. For each animal there were four hours between conditioning in one box and conditioning in the other box. On the day following the final day of conditioning, place preferences were again tested (post-conditioning, 10-minute testing time per mouse).
Because the magnitude of the measured withdrawal symptoms, while significant, was smaller than that commonly observed with exogenously administered opioids (Broseta et al., 2002), we wished to determine whether these withdrawal signs would be sufficient to elicit alterations in pro-active/operant behavioral choices. We utilized a conditioned place aversion assay (Skoubis et al., 2001; Weitemier and Murphy, 2009) to test whether a specific environment, paired with naloxone administration during conditioning, would be avoided in favor of a different environment paired with a neutral stimulus (saline) during conditioning in chronically UV-irradiated animals. Due to the kinetics of the UV response we chose to use naloxone as it allowed an acute effect of limited duration. Naloxone induces conditioned place aversion in exogenous opioid-dependent mice (Glass et al., 2008; Kenny et al., 2006). Following conditioning, mice were permitted to move freely between the two environments and changes in place preference were measured, in the absence of additional naloxone or saline administration. […]

Experiment [3] relates to C57Bl/6 mice. Kind of experiment: Analgesic threshold testing (von Frey test and hot plate test) during UV/mock regimen. Particulars: 10 mg/kg ip 15 min prior to testing; chronically UV-irradiated mice. An excerpt:
Mice underwent mechanical and thermal analgesic testing during UV/mock treatment regimens using the von Frey test (Kwan et al., 2006) and the hot plate test respectively (Mogil et al., 1999). In the von Frey test, mice were placed in individual enclosures on an elevated wire mesh rack and the plantar surface of the left hind paw was serially poked with fibers of increasing tensile strength (10 times per fiber at a rate of 1/second) until a paw withdrawal response was elicited on 2/10 pokes. In the hot plate test, mice were placed on a 52° C. hot plate and time to response (paw flutter, paw licking, jumping) was measured. […]
We developed a UV-exposure mouse model in which dorsally-shaved mice received a dose of 50 mJ/cm^2 of UVB, 5 days per week for 6 weeks, an empirically-derived sub-erythemic dose which is approximately equal to 20-30 minutes of ambient midday sun exposure in Florida during the summer for a fair-skinned person of average tanning ability (Fitzpatrick skin phototypes 2-3) (D'Orazio et al., 2006; Technology-Planning-and-Management-Corporation, 2000; US-EPA, 1994). […] We quantified mechanical and thermal nociceptive thresholds over six weeks of daily UV exposure. Mechanical nociception was measured by the von Frey test (Kwan et al., 2006), which exposes fibers of increasing tensile strength to the plantar paw surface to elicit a paw withdrawal response. […]
For orientation: Thermal pain tests record how soon the animal reacts.

In the case of `C=CCN1CC[C@]23c4c5ccc(O)c4O[C@H]2C(=O)CC[C@@]3(O)[C@H]1C5` [naloxone, naloxone hydrochloride], in the experiment on C57Bl/6 mice [1], the “Straub Tail score” value is given as “reversed the Straub Tail phenotype”. Also, the conditioned place aversion result in the experiment on C57Bl/6 mice [2] (10 mg/kg ip conditioning in the black box, chronically UV-irradiated mice) is reported as “sufficient to induce conditioned place aversion”; in the experiment on C57Bl/6 mice [2] (10 mg/kg ip conditioning in the black box, mock-treated (non-UV irradiated) control mice) it was “had no effect on mock-treated (non-UV irradiated) control mice”; in the experiment on C57Bl/6 mice [2] (K14cre control mice vs p53fl/fl K14cre mice after 3 weeks of daily UV exposure), “significant naloxone conditioned place aversion”. The “mechanical nociceptive threshold (von Frey)” value in the experiment with C57Bl/6 mice [3] was “suppressed the UV-induced increases in mechanical and thermal nociceptive thresholds”. For the same compound, in the experiment on C57Bl/6 mice [3], the “thermal nociceptive threshold (hot plate 52° C.)” value is “suppressed the UV-induced increases in mechanical and thermal nociceptive thresholds”.
